Paper PMC11459959, “Discovery of new acetamide derivatives of 5-indole-1,3,4-oxadiazol-2-thiol as inhibitors of HIV-1 Tat-mediated viral transcription” (Antimicrobial Agents and Chemotherapy, 2024)
Where two headings read alike, the source gives them in different places.

How the values were obtained:
[1] = test system: HIV-1NL4-3; assay: HIV-1 infectivity in TZM-bl cells (F-Luc); type: cell-based; details: for EC50: read-out: EC50
Description: (§5) The TZM-bl cells (also referred to as JC53BL-13) expressing human CD4, CXCR4, and CCR5 carrying the F-Luc and lacZ genes downstream of the HIV-1 LTR promoter ([60]) were used to determine the inhibitory effect of the compounds on HIV-1 infection, as previously described ([11], [12], [61]). In brief, 1 × 10^4 cells were cultured in 96-well plates for 24 h and subsequently treated with compounds at the indicated concentrations. Without replacement of the culture medium, the cells were subsequently infected with the HIV-1NL4-3 wild-type or ARV-resistant HIV-1 strains at an MOI of 1 to determine the exact inhibitory effect of compounds on a single-round infection. After 48 h, the inhibitory effect of the compounds was determined using a Bright Glo luciferase assay kit (Promega) or β-Galactosidase Enzyme Assay kit (Promega). The infectivity data were presented as a percentage relative to the dimethyl sulfoxide (DMSO) control (vehicle). Cell viability was determined using the resazurin-based PrestoBlue Cell Viability Reagent (Thermo Fisher Scientific, Waltham, MA, USA) following the manufacturer’s instructions.

[2] = test system: INSTI-resistant HIV-1 strain 11847; assay: microbe, parasite or virus in culture; type: cell-based; details: Human immunodeficiency virus 1, TZM-bl
Description: (§1) Fig 7 (A–C) TZM-bl cells (1 × 10^4 cells/well) cultured in a 96-well plate were treated with fivefold serial dilutions of the indicated compound or ARV for 1 h before infection with the HIV-1NL4-3 or ARV-resistant HIV-1 strains at an MOI of 1, respectively. At 48 h after infection, the EC50 values were determined using an F-Luc activity. The symbols represent the fold-change values of EC50 against each mutant virus relative to the wild-type (WT) virus. (D) PBMCs (5 × 10^4 cells/well) were infected with the HIV-1NL4-3 and PIs-resistant HIV-1 strain at an MOI of 0.1, respectively. Subsequently, the PBMCs were treated with 10-fold serial dilutions of the indicated compounds or PI. At 3 days after infection, the EC50 values on the viral replication were determined using a p24 […] assay kit. (E) The inhibitory kinetics for the WT and ARV-resistant viruses. TZM-bl cells infected with WT or ARV-resistant viruses were cultured upon fivefold serial dilutions of each compound for 2 days and the infectivity was determined using an F-Luc activity.
(§2) The Tzm-bl-derived dual Tat reporter; TZM-bl/Tat/Rluc (bl-DTR) cells were established from TZM-bl cells using two Dox-inducible lentiviral expression cassettes cloned with Flag-tagged Tat86 and the R-Luc gene, as described in our previous study ([11]). TZM-bl, A3.01, J1.1, and J-Lat 6.3 cells as well as the HIV-1 molecular clone pNL4-3, pNL(AD8), ARV-resistant HIV-1 strains, and HIV-1NL43-IRES-eGFP (pBR43IeG-nef^+, gifted by Dr. Frank Kirchhoff) ([52]) were provided by the National Institute of Health HIV Reagent Program (NIH, Bethesda, MD, USA). HeLa (CCL-2) and 293T (CRL-3216) cell lines were purchased from the American Type Culture Collection (ATCC, Manassas, VA, USA). The bl-DTR, TZM-bl, HeLa, and 293T cells were cultured in Dulbecco’s modified Eagle’s medium supplemented with 1% penicillin–streptomycin and 10% (vol/vol) heat-inactivated fetal bovine serum (all from Gibco-BRL, Gaithersburg, MD, USA), and 1 µg/mL of puromycin and 200 µg/mL of zeocin were additionally supplemented for the bl-DTR cells. PBMCs were purchased from AllCells (Alameda, CA, USA) and cultured as previously described ([12]). The information on ARV-resistant HIV-1 strains was described in previous reports as follows: NNRTI-resistant 12241 and 12243 ([53]); NRTI-resistant 7396, 7406, and 7407 ([54]); INSTI-resistant 11847 and 11849 ([55], [56]); and PI-resistant 11800 and 11803 ([57]). Each molecular HIV-1 clone was transfected to 293T cells, as previously described ([58]), to obtain infectious HIV-1 particles. Virus-containing cell culture supernatants were collected 3 days after transfection, and filtered through a 0.45-µm membrane filter (Millipore Sigma, Burlington, MA, USA) to remove cell debris. The viral titration was performed as described previously ([59]) with some minor modifications. In brief, 1 × 10^4 TZM-bl cells seeded in 96-well plates were infected with 200 µL of virus-containing medium diluted serially twofold. The incubation was for 2 days and the experiment was performed in triplicate; the infection time minimized the virus spread ([59]). The titration of the infectious viral particles was performed with a ß-Gal staining assay using the ßeta-Galactosidase Staining Kit (Mirus Bio, Madison, WI, USA) following the manufacturer’s protocols. In brief, the infected cells were washed with phosphate-buffered saline (PBS) and fixed using a Cell Fixative Working solution. The cells were washed with PBS and stained using the Cell Staining Working Solution containing X-gal. The infected blue-colored cells were counted under a microscope (100× magnification). The infectious virus titer was determined as a mean value of blue-colored cells count × dilution factor and used for determining the multiplicity of infection (MOI) in each infection experiment.

[3] = test system: INSTI-resistant HIV-1 strain 11849; assay: microbe, parasite or virus in culture; type: cell-based; details: Human immunodeficiency virus 1, TZM-bl
Description: as §1, §2

[4] = test system: HIV-1NL4-3; assay: Time-of-addition assay in TZM-bl cells; type: cell-based; details: HIV-1NL4-3 MOI 1, 9 and 13 1.5 μM, T-20 1 µM, triptolide 5 nM, ARVs 1 µM, F-Luc at 54 h
Description: (§3) Fig 5 (A) Time-of-addition assay. […] Subsequently, the cells were treated with the compounds at the indicated time points (0, 1, 2, 4, 6, 8, 10, 12, 24, 30, 36, 42, and 48 h) after HIV-1 infection. The final concentrations of compounds are described in Materials and Methods. Viral activity according to the timing of drug addition was measured as F-Luc activity at 54 h after infection. The relative activities are represented as the mean ± SD (n = 3) compared with the activity observed 54 h post-infection. The relative time frames associated with each HIV-1 infection step are defined based on the time frame of susceptibility to the drug that blocks that particular infection step. […] At 16 h after infection, the viral reverse transcription (RT) product (viral cDNA) level was determined by quantitative real-time PCR (RT-qPCR) using gag and 18S rRNA primer sets and represented as the mean ± SD (n = 3) normalized against the amount of the 18S rRNA compared with the DMSO control. **P < 0.01 compared with the vehicle (DMSO). (C) An in vitro integrase (IN) assay was performed with 10 µM of the indicated compounds following the manufacturer’s protocol. **P < 0.01 compared with vehicle (DMSO). (D) A3.01 cells were infected with HIV-1 upon treatment with the indicated compounds (5 µM) and ARVs (EFV and DTG) as the experimental controls. At 40 h after infection, cellular chromosomal DNA was purified, and the integrated proviral DNA was detected through nested Alu-PCR amplification.
A time-of-addition assay was performed as previously described ([25]) with minor modifications. […] Reference drug and test compounds were subsequently added at the indicated time (0, 1, 2, 4, 6, 8, 10, 12, 24, 30, 36, 42, and 48 h after infection). Final concentrations were as follows: compounds 9 and 13 (1.5 μM), T-20 (1 µM), Triptolide (5 nM), and ARVs (AZT, EFV, DTG, RAL) (1 µM). The viral activity according to the timing of drug addition was measured using a Bright Glo luciferase assay kit (Promega). Virus activity curves present a % activity relative to the activity observed at 54 h after infection, and the data are presented as the mean ± standard deviation (SD) (n = 3). The relative time frame associated with each HIV-1 infection step was defined based on the sensitivity to each drug that blocks a particular infection step.

[5] = test system: NNRTI-resistant HIV-1 strain 12241; assay: microbe, parasite or virus in culture; type: cell-based; details: Human immunodeficiency virus 1, TZM-bl
Description: as §1, §2

[6] = test system: NNRTI-resistant HIV-1 strain 12243; assay: microbe, parasite or virus in culture; type: cell-based; details: Human immunodeficiency virus 1, TZM-bl
Description: as §1, §2

[7] = test system: HIV-1NL4-3 IRES-eGFP-nef+; assay: eGFP-encoding HIV-1 infection of TZM-bl cells; type: cell-based; details: 9, 10, 13 1.5 μM, 20, 21, 22 4 μM, seliciclib 10 µM, triptolide 5 nM, DTG 2 nM, EFV 2 nM, 2 days
[8] = test system: HIV-1 transcripts; assay: RNA-seq of HIV-1 transcripts in infected TZM-bl cells; type: cell-based; details: HIV-1NL4-3 MOI 1, 1.5 µM, 2 days
Description: At 48 h after infection, the total RNA was extracted using the Maxwell RSC simplyRNA Cells Kit (Promega) according to the manufacturer’s instructions. RNA integrity was evaluated as RNA integrity number >6 using the Agilent 2100 Bio-analyzer (Agilent Technologies, Santa Clara, CA, USA). The cDNA libraries were constructed using TruSeq Stranded mRNA Sample Preparation Kit (Illumina, San Diego, CA, USA) according to the manufacturer’s instructions. Subsequently, these cDNA libraries were sequenced on the Illumina sequencing platform (NovaSeq6000; Illumina) and 150 bp paired-end reads were generated. Trimmomatic (v.0.32) was used to eliminate low-quality reads and adapter sequences from the sequencing data ([64]). Subsequently, the filtered reads were aligned to the HIV-1 genome (accession: AF324493.2) using STAR (v.2.3.0) ([65]). RT-qPCR analyses were performed as previously described ([66]) with some minor modifications. […] After infection, the infected cells were treated with 1.5 µM of the compounds. Forty-eight hours after treatment, the viral mRNA was isolated, converted to cDNA, and quantified through RT-qPCR on a 7500 Real-Time PCR System (Applied Biosystems) using the Power SYBR Green PCR Master Mix (Applied Biosystems). The comparative cycle threshold (Ct) method was used to analyze relative changes (Δ) in gene expression. The ΔCt values were determined using a 7500 Real-Time PCR System Software (Applied Biosystems) normalizing with gapdh, and the gene expression was calculated using the ΔΔCt-method. The primers used in this assay are the following: gag forward, 5′-[…]-3′, gag reverse, 5′-[…]-3′; gapdh forward, 5′-[…]-3′, gapdh reverse, 5′-[…]-3′.

[9] = test system: proviral DNA integrated to the host chromosome; assay: Integrated proviral DNA, nested Alu-PCR in A3.01 cells; type: cell-based, HIV-1; details: compounds 5 µM, 40 h after infection
Description: as §3
The activity of HIV-1 RT was determined as previously described with some minor modifications ([66][–][68]). In brief, HIV-1NL4-3 obtained from plasmid transfection was treated with DNase I (2.5 U/mL) for 2 h at 37°C to remove the plasmid DNA. […] Sixteen hours after infection, the cell cytosolic DNA was isolated under RNase A treatment, and the RT products (cytosolic viral cDNA) were quantified using RT-qPCR and the following primers: gag forward, 5′-[…]-3′, gag reverse, 5′-[…]-3′; 18S rRNA forward, 5′-[…]-3′, 18S rRNA reverse, 5′-[…]-3′. The relative levels of RT products were analyzed using the ΔΔCt-method, as described above. In vitro integrase activity was determined using an HIV-1 integrase assay kit (XpressBio, Frederick, MD, USA) as previously described ([12]). In brief, a 96-well plate coated with donor substrate DNA was blocked, and HIV-1 integrase was then added to the plate. Subsequently, the compounds and target substrate DNA were added to the plate and incubated for 30 min at 37°C. The plate was washed and subsequently incubated with horse radish peroxidase. Integrase activity was measured by the peroxidase activity with the substrate at an optical density of 450 nm. The experiment was performed in triplicates. Detection of integrated proviral DNA was performed as previously described ([69]) with some minor modifications. […] Chromosomal DNA was purified using the G-Spin DNA extraction kit (Intron Bio Tech, Seongnam-si, Gyeonggi-do, Republic of Korea). The integrated proviral HIV-1 DNA was detected by nested Alu-PCR amplification using the following primers: first round PCR, Alu forward, 5′-[…]-3′, pol reverse, 5′-[…]-3′; second round PCR, gag forward, 5′-[…]-3′, pol reverse. gapdh was used as the control gene.

[10] = test system: TZM-bl cells; assay: Cell viability of TZM-bl cells (PrestoBlue); type: cell-based
Description: as §5

[11] = test system: general cellular transcription/translation (R-Luc); assay: Dual-reporter assay, R-Luc in bl-DTR cells; type: cell-based; details: doxycycline, 24 h
Description: (§4) Fig 1 (A) (Top panel) Schematic representation of the primary compound screening using a dual-reporter system. […] (B). […] (Top graphs) bl-DTR cells (1 × 10^4) were treated with twofold serial dilutions of each compound before doxycycline (Dox) addition (final concentration, 50 ng/mL). After 24 h of treatment, the activities of firefly luciferase (F-Luc, red line) and Renilla luciferase (R-Luc, blue line) were determined using the Dual-Glo Luciferase assay system. (Bottom graphs) TZM-bl cells were treated with each indicated compound and subsequently infected with the HIV-1NL4-3 strain at a multiplicity of infection (MOI) of 1. At 48 h after infection, the viral infectivity (purple line) and cell viability (green line) were determined using the Bright-Glo luciferase assay kit and the PrestoBlue Cell Viability Reagent, respectively. […] (C). […] The targeted moieties for the SAR study are marked with dotted-circle lines.
as §2

[12] = test system: Tat-mediated LTR transcription; assay: Dual-reporter assay, F-Luc (Tat-mediated LTR transcription) in bl-DTR cells; type: cell-based, HIV-1; details: bl-DTR cells, doxycycline 50 ng/mL, 24 h; mean ± SD; read-out: IC50 of F-Luc (Tat)
Description: as §4, §2

In the case of Cc1nnc(C(=O)NC(C)(C)c2nc(C(=O)NCc3ccc(F)cc3)c(O)c(=O)n2C)o1 [RAL, raltegravir, reference compound], the EC50 ([1]; Human immunodeficiency virus 1, TZM-bl, Table S1, WT virus, TZM-bl) is reported as less than 0.001 µM, the EC50 [2] is reported as 4.99 ± 0.2 µM and the EC50 [3] is reported as 14.3 ± 2.59 µM. For the same molecule, the “time of administration after infection at which effectiveness began to decrease / was lost” value [4] was 10 h.

Molecule Cc1ccnc2c1NC(=O)c1cccnc1N2C1CC1 [NVP, nevirapine, reference compound] has an EC50 ([1]; Human immunodeficiency virus 1, TZM-bl, 48 h, Table S1, WT virus, TZM-bl, fivefold serial dilutions, MOI 1, 48 h) of 0.06 µM, an EC50 [5] greater than 100 µM and an EC50 [6] of 23.9 ± 2.3 µM.

With Cc1[nH]c2ccc(-c3nnc(S(=O)(=O)C(C)C(=O)N4CCCC4)o3)cc2c1C (centres unmarked) [Compound 21, 2-((5-(2,3-Dimethyl-1H-indol-5-yl)-1,3,4-oxadiazol-2-yl)sulfonyl)-1-(pyrrolidin-1-yl)propan-1-one] the “inhibition of viral-expressed eGFP signal” value [7] was “did not”, the “read counts of transcripts mapped to the HIV-1 genome” value [8] was “not observed” and the “nested Alu-PCR band for integrated proviral DNA” value [9] was “observed”.

With Cc1[nH]c2ccc(-c3nnc(SC(C)C(=O)N4CCCC4)n3CCc3ccccc3)cc2c1C (centres unmarked) [Compound 32, 2-((5-(2,3-Dimethyl-1H-indol-5-yl)-4-phenethyl-4H-1,2,4-triazol-3-yl)thio)-1-(pyrrolidin-1-yl)propan-1-one] the CC50 ([10]; human, 48 h) was 63.20 ± 2.65 µM and the “Relative R-Luc activity at IC50 of F-Luc” value [11] was 90.

“5-(2,3-Dimethyl-1H-indol-5-yl)-4-phenethyl-4H-1,2,4-triazole-3-thiol [Compound 29]” was tested, and the “SI (CC50/EC50)” value ([1]; TZM-bl cells) was 164.33, the EC50 ([1]; TZM-bl cells infected with HIV-1NL4-3 at MOI 1, 48 h, F-Luc, mean ± SD) was 0.39 ± 0.03 µM and the CC50 ([10]; TZM-bl cells, absence of HIV-1 infection, mean ± SD, read-out: CC50) was 64.1 ± 6.31 µM. The “Relative R-Luc activity at IC50 of F-Luc” value [11] was 90 and the IC50 [12] was 0.43 ± 0.03 µM.
